Tests used:
[1] = system: lung epithelial cells (BEAS2B); assay: IFN-γ or IL-4/IL-13 stimulated lung epithelial cells; format: cell-based; conditions: 10 ng/ml IFN-γ or IL-4/IL-13 for 6 h
From the text: It suppressed the infiltration of inflammatory cells into the airspace and lung and attenuated the expression of cytokines, chemokines, and IgE in BALF and serum.

[2] = system: human lung fibroblasts (IMR-90; fibroblasts of normal or UIP patients); assay: TGF-β-treated lung fibroblast proliferation and myofibroblast differentiation; format: cell-based; conditions: pretreatment 0.1 to 1 μM, then TGF-β 24 h
Method: IMR-90 cells were cultured in Dulbecco's modified Eagle's medium (DMEM) containing 10% heat-inactivated fetal bovine serum, penicillin, and streptomycin (100 IU/ml). Monolayer cultures were deprived of serum for 24 h, and treated with different concentrations of PB141 for different time periods as indicated. Cell numbers were then counted at 24, 48, and 72 h. Data are representative of one of two independent experiments; n=3.
IMR-90 cells were cultured in Dulbecco's modified Eagle's medium (DMEM) containing 10% heat-inactivated fetal bovine serum, penicillin, and streptomycin (100 IU/ml). Monolayer cultures were deprived of serum for 24 h, pre-treated with 0.5 μM PB141 or with vehicle (saline) for 1 h, and then exposed to 2 ng/ml TGF-β for 24 h. (A) Western blot analysis for α-smooth muscle actin. (B) Quantitative values for each condition. ***P<0.001 vs Veh. (C) Immunofluorescence microscopy for α-SMA following treatment. Blots and images are representative of two independent experiments.
Additional in vitro experiments were performed using normal human fetal lung fibroblasts (IMR-90; Institute for Medical Research, Camden, N.J.) or fibroblasts grown from mechanically dissociated surgical lung biopsy of histologically normal or usual interstitial pneumonia (UIP) patients. […]

BEAS-2B cells = format: cell-based
Method: To evaluate cell viability, apoptosis, and cytotoxicity, the Apo Tox-Glo Triplex assay was used according to the manufacturer's instructions (Promega, Madison, Wis.). Briefly, the BEAS-2B cells were plated at 2×10^4 cells/well in 100 μl medium in an opaque walled, clear-bottomed, 96-well plate. After 24 hr culture, they were treated for a further indicated time with different concentrations of PB141 or PB157. At the end of the culture period, 20 μl viability/cytotoxicity reagent was added to each well, mixed by orbital shaking (300 r.p.m. for 30 s) and incubated for 30 min at 37° C. Fluorescence was then measured with excitation at 400 nm and emission at 505 nm to assess cell viability, and 485 nm excitation and 520 nm emission to assess cytotoxicity; both were quantified as relative fluorescence units (RFU). Then, 100 μl Caspase-Glo 3/7 reagent was added to each well, mixed by orbital shaking (300 r.p.m. for 30 s) and incubated for 30 min at room temperature. Luminescence was measured to assess caspase activation as a marker of apoptosis and quantified as relative luminescence units. Results for PB141 and PB157 were similar.

[3] = system: cigarette smoke-induced COPD in mice; assay: Cigarette smoke-induced COPD model; format: in vivo
Method: COPD was induced by exposure of mice to whole-body cigarette smoke for 5 days, at the end of which the mice were euthanized and cells and levels of mediators were obtained from the pulmonary airspace by bronchoalveolar lavage. Some mice received PB141 (25 mg/kg) simultaneously with the cigarette smoke (A-I).
Mice were exposed 5 days per week for 4 wk (sub-acute exposure) to the smoke of five cigarettes (Reference Cigarette 2R4F without filter; University of Kentucky) administered four times per day with a 30-min smoke-free interval between exposures. An optimal smoke:air ratio of 1:6 was obtained. In preventive studies, tobacco smoke exposure was paralleled by delivery of a nebulized solution containing PB141 (25 mg/kg) or vehicle (saline) via a micropump nebulizer (Buxco Research Systems, Wilmington, N.C.). At the conclusion of smoke exposure the extent of lung inflammation was assessed by counting polymorphonuclear neutrophils (PMNs) in bronchoalveolar lavage fluid and measuring lung vascular permeability, edema, pulmonary lymphoid aggregation, and generation of inflammatory chemokines and cytokines. Emphysema was assessed by destruction of alveolar walls, quantitated as the destructive index (DI), and by enlargement of alveolar spaces, quantitated by the mean linear intercept (Lm). Airway remodeling was assessed by staining collagen in the airway wall and by measuring the amount of fibronectin. Lung histology sections were assessed for inflammation and injury following hematoxylin and eosin (H&E) staining. Lymphoid aggregates were quantification by morphometric analysis.

[4] = TRAP assay (quenching of ABTS+ radical cation); format: biochemical; conditions: 10 μmol compound, 5 min, absorbance 734 nm; Troxol reference
Method: The anti-oxidant activities of PB 141 were determined by the ability of this compound to react with pre-formed radical monocation of 2,2′-azinobis-(3-ethylbenzothiazoline)-6-sulfonic acid (ABTS^+). Data are representative of one of two independent experiments; n=3; *** P<0.001 versus Troxol.
The anti-oxidant activity of PB141 or PB157 was determined by the ability of these compounds to react with the pre-formed radical monocation of 2,2′-azinobis-(3-ethylbenzothiazoline)-6-sulfonic acid (ABTS^+). ABTS (1.8 mmol) was reacted overnight with potassium persulfate (0.63 mmol) in double distilled water, at room temperature in the dark, to generate the dark blue ABTS^+ radical cation. This radical cation has a maximum absorption at 734 nm. Immediately prior to the experiment, ABTS^+ was diluted with absolute ethanol to an absorbance of approximately 0.7 at 734 nm. PB141 or PB157 (10 μmol) was added to ABTS^+ (1 ml) and mixed by vortexing. The reaction was allowed to stabilize for 5 min and the absorbance was measured. The anti-oxidant activities of these compounds were determined by their ability to quench the color of the radical cation. Troxol (10 μmol) was used as reference standard.

[5] = 25 mg/kg nebulized in parallel with smoke exposure

SMILES: CC(=O)N[C@@H](CSC(CC(=O)CC(SC[C@H](NC(C)=O)C(=O)O)c1cnccn1)c1cnccn1)C(=O)O (stereo partly drawn) [PB141]
- Cytokine generation [1]: inhibited
- NO production [1]: inhibited
- iNOS expression [1]: inhibited
- Proliferation of human lung fibroblasts [2]: inhibited
- Differentiation to myofibroblasts (α-SMA) ([2]; including UIP patient fibroblasts): inhibited
- Cytotoxicity (BEAS-2B cells): without exhibiting cytotoxicity
- Apoptosis (caspase 3/7 activation) (BEAS-2B cells; different concentrations, data not shown): induced apoptosis
- Airway wall remodeling [3, 5]: significantly decreased
- Cigarette smoke-induced increase of inflammatory cells in the lungs [3, 5]: significantly decreased
- Development of pulmonary hypertension [3, 5]: significantly decreased
- Emphysema [3, 5]: significantly decreased
- Generation of inflammatory chemokines and cytokines [3, 5]: significantly decreased
- Pulmonary lymphoid aggregates [3, 5]: significantly decreased
- Phagocytic ability of alveolar macrophages ([3]; administration by nebulization): improved
- Anti-oxidant activity (ability to quench ABTS+ radical cation) [4]: clearly demonstrated

— patent US9862690B2, “Treatment of pulmonary and other conditions” (University of Pittsburgh—of the Commonwealth System of …, priority 2013, dated 2018)
